Measurements published in patent US6358947B1 (American Home Products Corporation, priority 1999, dated 2002).

Experiments:
Type in all cases: cell-based
hER [1] = molecular target: T1, hER (Homo sapiens, UniProt P03372); assay: Cotransfection assay, ER antagonist; details: read-out: ER Potency Antag
T1 sequence (P03372 1-595): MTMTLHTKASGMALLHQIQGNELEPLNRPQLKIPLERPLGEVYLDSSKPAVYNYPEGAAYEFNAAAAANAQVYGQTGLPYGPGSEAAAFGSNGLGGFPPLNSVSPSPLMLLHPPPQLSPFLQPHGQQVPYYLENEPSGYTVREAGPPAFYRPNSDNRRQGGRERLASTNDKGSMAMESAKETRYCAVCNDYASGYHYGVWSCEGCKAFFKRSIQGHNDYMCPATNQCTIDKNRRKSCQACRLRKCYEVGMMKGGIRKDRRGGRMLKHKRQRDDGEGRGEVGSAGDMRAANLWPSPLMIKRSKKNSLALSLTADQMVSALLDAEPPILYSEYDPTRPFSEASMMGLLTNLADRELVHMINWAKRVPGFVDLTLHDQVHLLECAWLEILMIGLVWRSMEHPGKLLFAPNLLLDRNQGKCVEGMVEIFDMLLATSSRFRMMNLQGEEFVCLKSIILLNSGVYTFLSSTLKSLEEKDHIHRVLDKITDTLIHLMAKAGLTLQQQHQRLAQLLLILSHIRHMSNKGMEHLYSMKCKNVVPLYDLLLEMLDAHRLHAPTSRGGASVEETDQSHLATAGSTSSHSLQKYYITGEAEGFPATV
Text: (§1) The cotransfection assay provides a method for identifying functional agonists and partial agonists that mimic, or antagonists that inhibit, the effect of native hormones, and for quantifying their activity for responsive intracellular receptor (IR) proteins. In this regard, the cotransfection assay mimics an in vivo system in the laboratory. Importantly, activity in the cotransfection assay correlates very well with known in vivo activity, such that the cotransfection assay functions as a qualitative and quantitative predictor of a tested compound's in vivo pharmacology.
(§2) In the cotransfection assay, a cloned cDNA for an IR (e.g., human PR, AR or GR) under the control of a constitutive promoter (e.g., the SV 40 promoter) is introduced by transfection (a procedure to induce cells to take up foreign genes) into a background cell substantially devoid of endogenous IRs. This introduced gene directs the recipient cells to make the IR protein of interest. A second gene is also introduced (cotransfected) into the same cells in conjunction with the IR gene. This second gene, comprising the cDNA for a reporter protein, such as firefly luciferase (LUC), is controlled by an appropriate hormone responsive promoter containing a hormone response element (HRE). This reporter plasmid functions as a reporter for the transcription-modulating activity of the target IR. Thus, the reporter acts as a surrogate for the products (mRNA, then protein) normally expressed by a gene under control of the target receptor and its native hormone.
(§3) The cotransfection assay can detect small molecule agonists or antagonists of target IRs. Exposing the transfected cells to an agonist ligand compound increases reporter activity in the transfected cells. This activity can be conveniently measured, e.g., by increasing luciferase production, which reflects compound-dependent, IR-mediated increases in reporter transcription. […] Increasing concentrations of a suspected antagonist will decrease the reporter signal (e.g., luciferase production). The cotransfection assay is therefore useful to detect both agonists and antagonists of specific IRs. Furthermore, it determines not only whether a compound interacts with a particular IR, but whether this interaction mimics (agonizes) or blocks (antagonizes) the effects of the native regulatory molecules on target gene expression, as well as the specificity and strength of this interaction.

hGR = molecular target: T2, hGR (Homo sapiens, UniProt P04150); assay: Cotransfection assay, GR antagonist; details: read-out: GR Potency Antag
T2 sequence (P04150 1-777): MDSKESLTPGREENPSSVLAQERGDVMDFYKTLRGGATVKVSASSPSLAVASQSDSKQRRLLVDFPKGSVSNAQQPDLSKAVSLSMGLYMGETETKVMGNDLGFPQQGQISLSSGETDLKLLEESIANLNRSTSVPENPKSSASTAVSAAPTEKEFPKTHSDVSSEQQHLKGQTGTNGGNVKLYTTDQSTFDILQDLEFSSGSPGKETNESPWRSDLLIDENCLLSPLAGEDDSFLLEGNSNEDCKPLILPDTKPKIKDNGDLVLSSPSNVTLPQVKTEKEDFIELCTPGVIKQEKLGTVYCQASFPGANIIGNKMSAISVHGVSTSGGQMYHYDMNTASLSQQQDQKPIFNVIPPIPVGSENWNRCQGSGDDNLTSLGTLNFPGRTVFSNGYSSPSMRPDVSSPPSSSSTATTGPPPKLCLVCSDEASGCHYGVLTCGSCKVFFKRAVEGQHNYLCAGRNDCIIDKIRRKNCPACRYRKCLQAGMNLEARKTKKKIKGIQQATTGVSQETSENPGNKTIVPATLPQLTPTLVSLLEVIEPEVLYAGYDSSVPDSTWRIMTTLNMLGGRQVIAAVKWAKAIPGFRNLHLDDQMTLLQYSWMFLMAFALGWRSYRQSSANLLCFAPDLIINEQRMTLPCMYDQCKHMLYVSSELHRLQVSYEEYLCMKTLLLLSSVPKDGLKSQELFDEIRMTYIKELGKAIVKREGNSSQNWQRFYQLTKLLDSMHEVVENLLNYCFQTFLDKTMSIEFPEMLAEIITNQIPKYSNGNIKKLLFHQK
Text: as §1, §2, §3

hER [2] = molecular target: T1, hER; assay: Cotransfection assay, ER agonist; details: read-out: ER Potency Agon
Text: as §1, §2, §3

human PR [3] = molecular target: T3, human PR (Homo sapiens, UniProt P06401); assay: Cotransfection assay, PR antagonist, CV-1 cells; details: percent maximal response relative to reference antagonist
T3 sequence (P06401 1-933): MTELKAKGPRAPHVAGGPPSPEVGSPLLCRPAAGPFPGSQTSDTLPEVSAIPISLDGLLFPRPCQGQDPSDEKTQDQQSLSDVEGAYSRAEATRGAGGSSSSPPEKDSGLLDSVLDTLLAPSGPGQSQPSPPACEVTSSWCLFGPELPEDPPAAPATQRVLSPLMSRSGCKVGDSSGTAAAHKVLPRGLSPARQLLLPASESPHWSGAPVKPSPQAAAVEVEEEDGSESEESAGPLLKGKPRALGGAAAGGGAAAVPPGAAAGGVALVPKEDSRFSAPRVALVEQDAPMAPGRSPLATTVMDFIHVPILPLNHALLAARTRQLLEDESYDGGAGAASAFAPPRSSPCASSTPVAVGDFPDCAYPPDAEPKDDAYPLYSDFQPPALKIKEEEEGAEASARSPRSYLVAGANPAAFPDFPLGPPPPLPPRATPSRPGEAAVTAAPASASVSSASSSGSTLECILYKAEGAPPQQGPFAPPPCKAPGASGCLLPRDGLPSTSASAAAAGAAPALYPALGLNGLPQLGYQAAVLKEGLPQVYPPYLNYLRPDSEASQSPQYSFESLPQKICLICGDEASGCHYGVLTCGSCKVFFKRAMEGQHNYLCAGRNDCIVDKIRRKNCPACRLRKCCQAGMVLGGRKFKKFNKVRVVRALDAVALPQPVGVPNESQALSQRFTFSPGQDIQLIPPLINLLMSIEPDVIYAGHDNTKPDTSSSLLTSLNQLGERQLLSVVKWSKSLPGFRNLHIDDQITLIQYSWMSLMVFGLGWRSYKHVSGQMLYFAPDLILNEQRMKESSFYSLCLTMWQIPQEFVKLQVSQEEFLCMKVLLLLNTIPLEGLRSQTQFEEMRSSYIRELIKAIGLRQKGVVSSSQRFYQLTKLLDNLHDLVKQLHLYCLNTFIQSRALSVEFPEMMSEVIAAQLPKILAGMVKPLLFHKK
Text: as §1, §2, §3

human PR [4] = molecular target: T3, human PR; assay: Cotransfection assay, PR agonist, CV-1 cells
Text: as §1, §2, §3

hMR = molecular target: T4, hMR (Homo sapiens, UniProt P08235); assay: Cotransfection assay, MR antagonist; details: read-out: MR Potency Antag
T4 sequence (P08235 1-984): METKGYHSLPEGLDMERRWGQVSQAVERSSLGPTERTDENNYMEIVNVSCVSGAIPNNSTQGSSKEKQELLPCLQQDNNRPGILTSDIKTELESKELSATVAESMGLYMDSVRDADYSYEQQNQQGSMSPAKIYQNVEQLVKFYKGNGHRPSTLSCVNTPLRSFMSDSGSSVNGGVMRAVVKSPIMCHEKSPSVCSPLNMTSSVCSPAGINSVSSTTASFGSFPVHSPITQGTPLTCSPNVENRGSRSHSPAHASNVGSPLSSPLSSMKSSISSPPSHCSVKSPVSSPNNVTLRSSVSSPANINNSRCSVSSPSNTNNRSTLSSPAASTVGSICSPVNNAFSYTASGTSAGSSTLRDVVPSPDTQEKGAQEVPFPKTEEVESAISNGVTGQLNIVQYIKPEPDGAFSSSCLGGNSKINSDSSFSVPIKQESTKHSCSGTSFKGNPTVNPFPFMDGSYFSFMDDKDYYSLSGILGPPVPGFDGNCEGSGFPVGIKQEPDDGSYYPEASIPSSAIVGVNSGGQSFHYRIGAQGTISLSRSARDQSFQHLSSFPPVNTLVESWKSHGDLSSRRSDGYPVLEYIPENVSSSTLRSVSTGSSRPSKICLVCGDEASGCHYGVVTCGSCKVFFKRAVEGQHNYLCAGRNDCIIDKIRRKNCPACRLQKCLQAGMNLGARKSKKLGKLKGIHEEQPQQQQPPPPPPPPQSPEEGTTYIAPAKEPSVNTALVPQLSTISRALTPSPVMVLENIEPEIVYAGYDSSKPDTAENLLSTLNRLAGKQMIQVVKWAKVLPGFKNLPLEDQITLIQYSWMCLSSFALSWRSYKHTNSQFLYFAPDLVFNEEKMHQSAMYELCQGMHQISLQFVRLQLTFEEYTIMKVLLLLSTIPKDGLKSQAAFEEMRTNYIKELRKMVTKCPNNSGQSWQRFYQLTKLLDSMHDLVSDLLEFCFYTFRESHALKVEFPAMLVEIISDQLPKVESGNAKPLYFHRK
Text: as §1, §2, §3

| SMILES | IC50 (hER [1]) [µM] | IC50 (hGR) [µM] | EC50 (hER [2]) [µM] | PR Antagonist CV-1 Cells Efficacy (human PR [3]) [%] | PR Agonist CV-1 Cells Efficacy (human PR [4]) | EC50 (human PR [4]; Table 2, read-out: PR Potency Agon) [µM] | IC50 (hMR) [µM] |
| --- | --- | --- | --- | --- | --- | --- | --- |
| CC(=O)S[C@@H]1CC2=CC(=O)CC[C@]2(C)[C@H]2CC[C@@]3(C)[C@@H](CC[C@@]34CCC(=O)O4)[C@H]12 [Spir, reference compound] | > 10 | 2 | > 10 |  |  |  |  |
| CN(C)c1ccc([C@H]2C[C@]3(C)[C@@H](CC[C@]3(O)CCCO)[C@@H]3CCC4=CC(=O)CCC4=C32)cc1 [ZK299, reference compound] |  |  |  | 99 | na (key: na = not active (i.e. efficacy of <20 and potency of >10,000)) |  |  |
| CC(C)C(=O)Nc1ccc([N+](=O)[O-])c(C(F)(F)F)c1 [Flut, reference compound] | > 10 |  | > 10 |  |  | > 10 | > 10 |
